# Source: ChEMBL document CHEMBL1143995, “Virtual screening approaches for the identification of non-lipid autotaxin inhibitors” (Bioorg Med Chem, 2008)
# Target: Autotaxin (Homo sapiens) (UniProt Q13822)
# Conditions: MDA-MB-435, at 10 µM
# Description: Inhibition of human autotaxin expressed in MDA-MB-435 cells assessed as fluorescent lysophosphatidyl choline analog hydrolysis at 10 uM
# 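Further: activity read as cleavage of a fluorescent lysophosphatidylcholine analog by autotaxin expressed in the cells.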
row,Compound,inhibition [%]
1,O=C(O)c1cccc(NC(=O)c2ccc3c(c2)C(=O)N(c2ccccc2)C3=O)c1,79
2,O=C(O)c1ccc(Oc2ccc(C(=O)c3ccc4c(c3)C(=O)N(c3ccccc3C(=O)O)C4=O)cc2)cc1,71
3,O=C(O)c1cccc(NC(=O)c2ccc3c(c2)C(=O)N(c2ccc(/N=N/c4ccccc4)cc2)C3=O)c1,45
4,O=C(O)c1ccc2c(c1)C(=O)N(c1ccc(C(=O)OCC(=O)c3ccccc3)cc1)C2=O,71
5,CC(=O)Nc1ccc(/N=N/c2c(S(=O)(=O)O)cc3cc(NC(=O)Nc4ccc5c(O)c(/N=N/c6ccccc6)c(S(=O)(=O)O)cc5c4)ccc3c2O)cc1,71
6,O=C(Cc1ccccc1)Nc1cc(N2C(=O)c3ccc(C(=O)O)cc3C2=O)ccc1Cl,74
7,COc1ccc(N2C(=O)c3ccc(C(=O)Nc4cccc(C(=O)O)c4)cc3C2=O)cc1,58
8,O=C(O)c1cc(NC(=O)c2ccc3c(c2)C(=O)N(Cc2cccnc2)C3=O)cc(C(=O)O)c1,86
9,CCOc1ccccc1N1C(=O)c2ccc(C(=O)c3ccc4c(c3)C(=O)N(c3ccccc3OCC)C4=O)cc2C1=O,86
10,O=C(Nc1ccc(O)c(C(=O)O)c1)c1ccc2c(c1)C(=O)N(CC1CCCO1)C2=O (stereo not given),67
11,CC(C)(C)c1ccc(C(=O)NC(=S)N2CCCC2)cc1,76
12,O=C(O)c1ccc2c(c1)C(=O)N(c1ccc(Oc3ccc([N+](=O)[O-])cc3)cc1)C2=O,70
13,Oc1ccc(/N=N/c2ccccc2Br)cc1/C=N/c1ccc(I)cc1,87
14,O=C(NN1C(=O)c2ccc(C(=O)c3ccc4c(c3)C(=O)N(NC(=O)c3ccncc3)C4=O)cc2C1=O)c1ccncc1,31
15,O=C(O)c1ccc(CN2C(=O)c3ccc(C(=O)c4ccc5c(c4)C(=O)N(Cc4ccc(C(=O)O)cc4)C5=O)cc3C2=O)cc1,46
16,O=C(c1ccc2c(c1)C(=O)N(N1C(=O)c3ccccc3C1=O)C2=O)c1ccc2c(c1)C(=O)N(N1C(=O)c3ccccc3C1=O)C2=O,90
17,Cc1cc(=O)oc2c(/C=N/c3ccc(/N=N/c4ccccc4)cc3)c(O)ccc12,91
18,CCCCN1C(=O)c2ccc(C(=O)Nc3cc(C(=O)O)cc(C(=O)O)c3)cc2C1=O,89
19,O=C(c1ccc2c(c1)C(=O)N(c1ccc(Br)cc1)C2=O)c1ccc2c(c1)C(=O)N(c1ccc(Br)cc1)C2=O,93
20,O=C(c1ccc2c(c1)C(=O)N(Cc1ccccc1)C2=O)c1ccc2c(c1)C(=O)N(Cc1ccccc1)C2=O,67
21,O=C(O)c1ccc2c(c1)C(=O)N(c1ccc(Cl)c(NC(=O)c3ccc4ccccc4c3O)c1)C2=O,86
22,Cc1ccc(C(=O)O)cc1N1C(=O)c2ccc(C(=O)c3ccc4c(c3)C(=O)N(c3cc(C(=O)O)ccc3C)C4=O)cc2C1=O,83
23,O=C(NC1c2ccccc2Oc2ccccc21)c1ccc(C(=O)NC2c3ccccc3Oc3ccccc32)cc1,91
24,CCCCOC(=O)c1ccccc1N1C(=O)c2ccc(C(=O)c3ccc4c(c3)C(=O)N(c3ccccc3C(=O)OCCCC)C4=O)cc2C1=O,87

row,Compound,inhibition [%]
1,Cc1ccc(N2C(=O)c3ccc(C(=O)c4ccc5c(c4)C(=O)N(c4ccc(C)cc4C(=O)O)C5=O)cc3C2=O)c(C(=O)O)c1,70
2,CCn1cc(C(=O)O)c(=O)c2cnc(N3CCN(C(=S)Nc4cc5oc6ccccc6c5cc4OC)CC3)nc21,88
3,Cc1ccc(/N=N/c2cc(C)ccc2NC(=O)c2ccc(Oc3ccc(C(=O)Nc4ccc(C)cc4/N=N/c4ccc(C)cc4)cc3)cc2)cc1,93
4,O=C(O)c1ccc2c(c1)C(=O)N(c1cccc(-c3nc4ccccc4c(=O)o3)c1)C2=O,71
5,CCn1cc(C(=O)O)c(=O)c2cnc(N3CCN(C(=S)NC(CC(=O)OC)C(=O)OC)CC3)nc21 (stereo not given),62
6,Cc1c(N2C(=O)c3ccc(C(=O)c4ccc5c(c4)C(=O)N(c4c(C)n(C)n(-c6ccccc6)c4=O)C5=O)cc3C2=O)c(=O)n(-c2ccccc2)n1C,67
7,O=C(O)c1ccc(Oc2ccc(C(=O)c3ccc4c(c3)C(=O)N(c3ccc([N+](=O)[O-])cc3)C4=O)cc2)cc1,90
8,CCn1cc(C(=O)O)c(=O)c2cnc(N3CCN(C(=S)Nc4cc(Cl)cc(Cl)c4)CC3)nc21,0
9,O=C(/C=C/c1cccs1)NC(=S)N1CCCCCC1,88
10,Cc1c(NS(=O)(=O)CC23CCC(CC2=O)C3(C)C)c(=O)n(-c2ccccc2)n1C (stereo not given),88
11,Cc1ccccc1NC(=O)c1cccc(N2C(=O)c3ccc(C(=O)O)cc3C2=O)c1,79
12,COCC(=O)N1N=C(c2cccc(NS(C)(=O)=O)c2)CC1c1cccc([N+](=O)[O-])c1 (stereo not given),85
13,CC(=O)OCCCN1C(=O)c2ccc(C(=O)c3ccc4c(c3)C(=O)N(CCCOC(C)=O)C4=O)cc2C1=O,58
14,O=C(O)c1ccc2c(c1)C(=O)N(c1cccc(C(=O)Nc3cccc(Cl)c3)c1)C2=O,48
15,Cc1ccc(NC(=S)NC(=O)C2CCCC2)cc1C,90
16,CC(=O)Oc1cccc(N2C(=O)c3ccc(C(=O)c4ccc5c(c4)C(=O)N(c4cccc(OC(C)=O)c4)C5=O)cc3C2=O)c1,80
17,O=S(=O)(O)c1cc(O)c2c(/N=N/c3c(S(=O)(=O)O)cc4cc(S(=O)(=O)O)cc(O)c4c3O)cc(S(=O)(=O)O)cc2c1,85
18,Oc1cccc(/C=N/c2ccc(/N=N/c3ccccc3)cc2)c1O,86
19,O=C(/C=C/c1cccc(N2C(=O)c3ccc(C(=O)c4cccc([N+](=O)[O-])c4)cc3C2=O)c1)c1ccccc1,90
20,CCn1cc(C(=O)O)c(=O)c2cc(F)c(N3CCN(C(=S)NC4CC5CCC4C5)CC3)cc21 (stereo not given),83
21,CC(=O)Oc1ccc(N2C(=O)c3ccc(C(=O)c4ccc5c(c4)C(=O)N(c4ccc(OC(C)=O)cc4C(=O)O)C5=O)cc3C2=O)c(C(=O)O)c1,53
22,O=C(O)c1ccc(Oc2ccc(C(=O)c3ccc4c(c3)C(=O)N(c3ccc(O)cc3)C4=O)cc2)cc1,62
23,O=C(O)c1ccc2c(c1)C(=O)N(c1cccc(N3C(=O)c4ccc(C(=O)O)cc4C3=O)n1)C2=O,89
24,Cc1cc(=O)oc2cc(OCC(=O)NC(CC(=O)O)C(=O)O)ccc12 (stereo not given),85

row,Compound,inhibition [%]
1,O=C(c1ccc2c(c1)C(=O)N(c1ccccc1-c1ccccc1)C2=O)c1ccc2c(c1)C(=O)N(c1ccccc1-c1ccccc1)C2=O,91
2,O=C(O)c1cccc(NC(=O)c2ccc3c(c2)C(=O)N(Cc2cccnc2)C3=O)c1,56
3,O=C(O)c1ccc(Oc2ccc(C(=O)c3ccc4c(c3)C(=O)N(c3cccc5ccccc35)C4=O)cc2)cc1,31
4,O=C(O)c1cn(C2CC2)c2cc(N3CCN(C(=S)Nc4ccc5c(c4)OCCO5)CC3)c(F)cc2c1=O,91
5,O=C(O)c1cccc(NC(=O)c2ccc3c(c2)C(=O)N(C2CCCCC2)C3=O)c1,55
6,O=C(O)c1cccc(NC(=O)c2ccc3c(c2)C(=O)N(c2nccs2)C3=O)c1,71
7,Cc1ccc(/N=N/c2cc(C)ccc2NC(=O)c2ccc3c(c2)C(=O)N(N2C(=O)c4ccccc4C2=O)C3=O)cc1,81
8,CCn1c(SCC(=O)Nc2ccc(C(C)=O)cc2)nc2nc3c(cc2c1=O)CCCC3,21
9,O=C(O)c1cc(C(=O)O)cc(N2C(=O)c3ccc(C(=O)c4ccc5c(c4)C(=O)N(c4cc(C(=O)O)cc(C(=O)O)c4)C5=O)cc3C2=O)c1,49
10,CCCCCCCOC(=O)c1ccc(N2C(=O)c3ccc(C(=O)c4ccc5c(c4)C(=O)N(c4ccc(C(=O)OCCCCCCC)cc4)C5=O)cc3C2=O)cc1,58
11,O=C(c1ccc2c(c1)C(=O)N(c1cccc3ccccc13)C2=O)c1ccc2c(c1)C(=O)N(c1cccc3ccccc13)C2=O,59
12,O=C(O)c1ccc2c(c1)C(=O)N(c1ccc(-c3nnc(-c4ccccc4)o3)cc1)C2=O,87
13,O=C(Cc1ccccc1)Nc1cccc(N2C(=O)c3ccc(C(=O)O)cc3C2=O)c1,74
14,COC(=O)c1ccc(N2C(=O)c3ccc(C(=O)c4ccc5c(c4)C(=O)N(c4ccc(C(=O)OC)cc4)C5=O)cc3C2=O)cc1,65
15,O=C(O)c1cc(NC(=O)c2ccc3c(c2)C(=O)N(CC2CCCO2)C3=O)cc(C(=O)O)c1 (stereo not given),71
16,CC(C)C(=O)NC(=S)Nc1ccc(N2CCOCC2)cc1,80
17,O=C(O)c1ccc2c(c1)C(=O)N(c1ccc(/N=N/c3ccccc3)cc1)C2=O,82
18,CC(=O)OCCN1C(=O)c2ccc(C(=O)c3ccc4c(c3)C(=O)N(CCOC(C)=O)C4=O)cc2C1=O,91
19,CCS(=O)(=O)N1N=C(c2ccc(NS(C)(=O)=O)cc2)CC1c1ccc(OC)cc1 (stereo not given),89
20,Cc1ccnc(N2C(=O)c3ccc(C(=O)c4ccc5c(c4)C(=O)N(c4cc(C)ccn4)C5=O)cc3C2=O)c1,91
21,CCn1cc(C(=O)O)c(=O)c2cnc(N3CCN(C(=S)NC(=O)c4c(-c5ccccc5)noc4C)CC3)nc21,78
22,CC(=O)Nc1ccc(N2C(=O)c3ccc(C(=O)c4ccc5c(c4)C(=O)N(c4ccc(NC(C)=O)cc4)C5=O)cc3C2=O)cc1,59
